Here are results for one substance from patent US6699970B2, “Mutacin I biosynthesis genes and proteins” (priority 2000, dated 2004).

One data set deals with enterococci. The experiment in a line: antimicrobial spectrum assay. The data set is classed as cell-based. The conditions noted are these: comparison of mutacin I and mutacin III.
The next data set relates to pneumococci. The data set can be described thus: antimicrobial spectrum assay. The data set is classed as cell-based. The conditions noted are these: comparison of mutacin I and mutacin III.
The test system of the next data set is Group A streptococci. The experiment in a line: antimicrobial spectrum assay. The data set is classed as cell-based. The conditions noted are these: comparison of mutacin I and mutacin III.
Data set [1] is described as follows: reverse-phase HPLC analysis (hydrophobicity). The data set is classed as physicochemical. Conditions: from acetonitrile concentration at elution. The text has this: For purification, the crude extract of mutacin I (SEQ ID No: 2) was applied to a Source 15RPC column and eluted with a fragmented gradient A (0.1% TFA) and B (0.085% TFA in 60% acetonitrile) using a LKB Purifier (Amersham Pharmacia Biotech, Piscataway, N.J.). The active fractions were pooled and dried in a lyophilizer. The pellet was redissolved in 0.25% TFA and subjected to a second round purification using a fragmented gradient of buffer A (0.1% TFA) and B (0.085% TFA in 80% methanol). The single active peak fraction was collected, dried in a lyophilizer, and used for sequence analysis and electrospray ionization mass spectrometry (EIMS).

Data set [2] has as its system gram-positive bacteria including the multidrug-resistant Staphylococci and Enterococci. The experiment in a line: spectrum of antimicrobial activity. The data set is classed as cell-based.

In the case of “mutacin I: lantibiotic from Streptococcus mutans CH43, twenty-four amino acids in its mature form, approximately 2364 Da (FSSLSLCSLGCTGVKNPSFNSYCC)”, the “pH range of activity” value is on record as “works in a wide range of pH”. Besides, in the data set with enterococci, the antimicrobial activity result was “equal activities”. The antimicrobial activity result in the data set on pneumococci was “equal activities”. Besides, the antimicrobial activity result in the data set with Group A streptococci is on record as “equal activities”. In data set [1], the hydrophobicity result was “more hydrophobic than mutacin III”. In data set [2], the “resistance of sensitive bacteria” value is “resistance to mutacin has not been observed” and the “spectrum of antimicrobial activity” value is recorded as “wide spectrum of antimicrobial activity”.
